Our source for the IC50 values is patent US12435089B2, “3-oxadiazolyl substituted pyrazolo[1,5,a]pyrimidines for ROS1, NTRK, and ALK mediated diseases” (TYK MEDICINES, INC., priority 2019, dated 2025).

Experiment [1] addresses TRKA (Homo sapiens (Human), UniProt P04629). The experiment is described as follows: Radio-tagged HotSpot kinase assay, TRKA.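 Note: kinase activity measured through incorporation of 33P from labelled ATP into substrate, 120 min at room temperature, relative to a DMSO-only blank control, reported as inhibition.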
Protocol: (§2) Inhibition of protein kinase activity by compounds was carried out on the Radio-tagged HotSpot kinase experimental platform of Reaction Biology Corporation. Fresh reaction solution (20 mM HEPESpH 7.5, 10 mM MgCl2, 1 mM EGTA, 0.02% Brij35, 0.02 mg/ml BSA, 0.1 mM Na3VO4, 2 mM DTT, 1% DMSO) containing corresponding substrates was prepared, cofactor and kinase to be tested were added into the above solution and mixed gently. Echo550 pipetting system was used to add the test compound DMSO solution to each well (the blank control group was added with the corresponding volume of DMSO), then 33P-ATP (with a final specific activity of 0.01 μCi/μL) was added to start the reaction. The reaction solution was incubated at room temperature for 120 minutes.
The test system of experiment [2] is Ba/F3-LMNA-NTRK1-G595R. The experiment is described as follows: Inhibition of cell proliferation (CellTiter-Glo), Ba/F3-LMNA-NTRK1-G595R. The class given is cell-based. The conditions noted are these: 72 hours. The procedure:
(§1) The experiment of inhibiting cell proliferation by compounds was carried out in Hefei Zhongkeprecedo Biomedical Technology Co., Ltd. The Ba/F3 engineered cell line stably transfected with different kinase genes was recovered with RPMI 1640 medium (Biological Industries, Israel)+10% fetal bovine serum (Biological Industries, Israel)+1% double antibody (Penicillin Streptomycin solution, Coring, USA) and cultivated two generations. The logarithmic growth phase cell suspension was taken, and 2000 cells/well were inoculated on 96-well white cell culture plate (Corning 3917, NY, USA) with a volume of 95 μL per well. 5 μL of 20×DMSO solution of the compound to be tested was added into the culture plate containing 95 μL of cell suspension. The blank control group was added with corresponding volume of DMSO, mixed well, and incubated in a 5% CO2 incubator at 37° C. for 72 hours. CellTiter-Glo was used to detect cell viability.
On the technique in general: Cellular ATP, detected with luciferase, serves as a proxy for viable cell number.

Experiment [3] concerns Ba/F3-CD74-ROS1-G2032R. Description: Inhibition of cell proliferation (CellTiter-Glo), Ba/F3-CD74-ROS1-G2032R.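 Note: Ba/F3 cell line expressing the CD74-ROS1 fusion with G2032R mutation.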 The class given is cell-based. The settings on record: 72 hours. The procedure: as §1
Experiment [4] has as its system Ba/F3-LMNA-NTRK1. The experiment is described as follows: Inhibition of cell proliferation (CellTiter-Glo), Ba/F3-LMNA-NTRK1. The class given is cell-based. The settings on record: 72 hours. The procedure: as §1
In experiment [5] the test system is Ba/F3-CD74-ROS1. Description: Inhibition of cell proliferation (CellTiter-Glo), Ba/F3-CD74-ROS1. The settings on record: 72 hours. Type of experiment: cell-based. The procedure:
as §1

In experiment [6] the target is TRKA (G677C) (Homo sapiens, UniProt P04629, G667C). The experiment is described as follows: Radio-tagged HotSpot kinase assay, TRKA (G677C). Type of experiment: biochemical. The settings on record: 33P-ATP, 120 min, room temperature.
Chain of TRKA (G677C) (P04629 33-796 G667C limits assumed): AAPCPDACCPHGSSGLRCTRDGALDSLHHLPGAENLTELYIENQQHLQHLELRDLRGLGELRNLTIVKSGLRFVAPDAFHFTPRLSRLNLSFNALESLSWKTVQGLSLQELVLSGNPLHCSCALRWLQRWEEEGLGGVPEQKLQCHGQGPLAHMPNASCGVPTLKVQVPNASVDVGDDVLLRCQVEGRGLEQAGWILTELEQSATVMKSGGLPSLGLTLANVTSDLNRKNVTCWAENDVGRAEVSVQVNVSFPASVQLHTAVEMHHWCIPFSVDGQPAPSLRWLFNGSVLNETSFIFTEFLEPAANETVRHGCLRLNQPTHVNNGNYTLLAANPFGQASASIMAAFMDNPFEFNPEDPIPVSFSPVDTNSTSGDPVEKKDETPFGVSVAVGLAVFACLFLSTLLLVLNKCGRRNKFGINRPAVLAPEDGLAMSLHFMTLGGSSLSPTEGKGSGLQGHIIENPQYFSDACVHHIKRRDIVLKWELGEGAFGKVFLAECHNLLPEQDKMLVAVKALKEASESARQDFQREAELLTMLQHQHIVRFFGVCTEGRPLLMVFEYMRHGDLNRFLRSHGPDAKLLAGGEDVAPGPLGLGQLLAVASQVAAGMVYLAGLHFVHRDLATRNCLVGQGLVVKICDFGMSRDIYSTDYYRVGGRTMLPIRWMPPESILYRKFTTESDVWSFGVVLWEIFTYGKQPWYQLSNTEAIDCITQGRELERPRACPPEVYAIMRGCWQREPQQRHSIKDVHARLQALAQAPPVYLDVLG
Protocol: as §2
Experiment [7] has as its target ROS1 (Homo sapiens (Human), UniProt P08922). The experiment is described as follows: Radio-tagged HotSpot kinase assay, ROS1.
Protocol: as §2
The target in experiment [8] is TRKC (Homo sapiens (Human), UniProt Q16288). The experiment is described as follows: Radio-tagged HotSpot kinase assay, TRKC. The class given is biochemical. The conditions noted are these: 33P-ATP, 120 min, room temperature.
Chain of TRKC (Q16288 32-839): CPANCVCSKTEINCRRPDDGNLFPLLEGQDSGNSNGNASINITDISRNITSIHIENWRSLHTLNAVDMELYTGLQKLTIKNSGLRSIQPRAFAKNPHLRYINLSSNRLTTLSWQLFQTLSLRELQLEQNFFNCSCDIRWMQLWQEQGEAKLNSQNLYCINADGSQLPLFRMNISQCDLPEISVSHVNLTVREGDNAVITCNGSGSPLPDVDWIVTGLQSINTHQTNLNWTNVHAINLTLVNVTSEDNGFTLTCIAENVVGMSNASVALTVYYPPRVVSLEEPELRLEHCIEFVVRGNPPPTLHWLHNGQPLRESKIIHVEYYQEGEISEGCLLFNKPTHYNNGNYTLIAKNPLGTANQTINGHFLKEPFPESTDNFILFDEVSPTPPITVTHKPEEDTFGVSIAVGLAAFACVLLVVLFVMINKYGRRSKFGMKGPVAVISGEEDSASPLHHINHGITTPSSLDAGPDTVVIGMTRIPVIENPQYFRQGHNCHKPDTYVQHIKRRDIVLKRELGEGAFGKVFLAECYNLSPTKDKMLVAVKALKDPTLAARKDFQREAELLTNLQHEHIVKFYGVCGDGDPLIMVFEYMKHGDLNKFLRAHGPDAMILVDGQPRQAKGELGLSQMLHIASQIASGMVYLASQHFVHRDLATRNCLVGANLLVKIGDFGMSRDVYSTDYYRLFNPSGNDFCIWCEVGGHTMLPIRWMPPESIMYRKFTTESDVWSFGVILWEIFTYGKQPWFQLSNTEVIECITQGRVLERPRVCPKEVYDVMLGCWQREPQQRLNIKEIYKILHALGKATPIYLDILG
Protocol: as §2
Experiment [9] deals with TRKA (G595R) (Homo sapiens (Human), UniProt P04629, G595R). Description: Radio-tagged HotSpot kinase assay, TRKA (G595R).
Chain of TRKA (G595R) (P04629 33-796 G595R): as the sequence (P04629 33-796 G667C limits assumed) above, with G563R, C635G counted along it
Protocol: as §2
The target of experiment [10] is ROS1 (G2032R) (Homo sapiens (Human), UniProt P08922, G2032R). The experiment is described as follows: Radio-tagged HotSpot kinase assay, ROS1 (G2032R).
Chain of ROS1 (G2032R) (P08922 28-2347 G2032R): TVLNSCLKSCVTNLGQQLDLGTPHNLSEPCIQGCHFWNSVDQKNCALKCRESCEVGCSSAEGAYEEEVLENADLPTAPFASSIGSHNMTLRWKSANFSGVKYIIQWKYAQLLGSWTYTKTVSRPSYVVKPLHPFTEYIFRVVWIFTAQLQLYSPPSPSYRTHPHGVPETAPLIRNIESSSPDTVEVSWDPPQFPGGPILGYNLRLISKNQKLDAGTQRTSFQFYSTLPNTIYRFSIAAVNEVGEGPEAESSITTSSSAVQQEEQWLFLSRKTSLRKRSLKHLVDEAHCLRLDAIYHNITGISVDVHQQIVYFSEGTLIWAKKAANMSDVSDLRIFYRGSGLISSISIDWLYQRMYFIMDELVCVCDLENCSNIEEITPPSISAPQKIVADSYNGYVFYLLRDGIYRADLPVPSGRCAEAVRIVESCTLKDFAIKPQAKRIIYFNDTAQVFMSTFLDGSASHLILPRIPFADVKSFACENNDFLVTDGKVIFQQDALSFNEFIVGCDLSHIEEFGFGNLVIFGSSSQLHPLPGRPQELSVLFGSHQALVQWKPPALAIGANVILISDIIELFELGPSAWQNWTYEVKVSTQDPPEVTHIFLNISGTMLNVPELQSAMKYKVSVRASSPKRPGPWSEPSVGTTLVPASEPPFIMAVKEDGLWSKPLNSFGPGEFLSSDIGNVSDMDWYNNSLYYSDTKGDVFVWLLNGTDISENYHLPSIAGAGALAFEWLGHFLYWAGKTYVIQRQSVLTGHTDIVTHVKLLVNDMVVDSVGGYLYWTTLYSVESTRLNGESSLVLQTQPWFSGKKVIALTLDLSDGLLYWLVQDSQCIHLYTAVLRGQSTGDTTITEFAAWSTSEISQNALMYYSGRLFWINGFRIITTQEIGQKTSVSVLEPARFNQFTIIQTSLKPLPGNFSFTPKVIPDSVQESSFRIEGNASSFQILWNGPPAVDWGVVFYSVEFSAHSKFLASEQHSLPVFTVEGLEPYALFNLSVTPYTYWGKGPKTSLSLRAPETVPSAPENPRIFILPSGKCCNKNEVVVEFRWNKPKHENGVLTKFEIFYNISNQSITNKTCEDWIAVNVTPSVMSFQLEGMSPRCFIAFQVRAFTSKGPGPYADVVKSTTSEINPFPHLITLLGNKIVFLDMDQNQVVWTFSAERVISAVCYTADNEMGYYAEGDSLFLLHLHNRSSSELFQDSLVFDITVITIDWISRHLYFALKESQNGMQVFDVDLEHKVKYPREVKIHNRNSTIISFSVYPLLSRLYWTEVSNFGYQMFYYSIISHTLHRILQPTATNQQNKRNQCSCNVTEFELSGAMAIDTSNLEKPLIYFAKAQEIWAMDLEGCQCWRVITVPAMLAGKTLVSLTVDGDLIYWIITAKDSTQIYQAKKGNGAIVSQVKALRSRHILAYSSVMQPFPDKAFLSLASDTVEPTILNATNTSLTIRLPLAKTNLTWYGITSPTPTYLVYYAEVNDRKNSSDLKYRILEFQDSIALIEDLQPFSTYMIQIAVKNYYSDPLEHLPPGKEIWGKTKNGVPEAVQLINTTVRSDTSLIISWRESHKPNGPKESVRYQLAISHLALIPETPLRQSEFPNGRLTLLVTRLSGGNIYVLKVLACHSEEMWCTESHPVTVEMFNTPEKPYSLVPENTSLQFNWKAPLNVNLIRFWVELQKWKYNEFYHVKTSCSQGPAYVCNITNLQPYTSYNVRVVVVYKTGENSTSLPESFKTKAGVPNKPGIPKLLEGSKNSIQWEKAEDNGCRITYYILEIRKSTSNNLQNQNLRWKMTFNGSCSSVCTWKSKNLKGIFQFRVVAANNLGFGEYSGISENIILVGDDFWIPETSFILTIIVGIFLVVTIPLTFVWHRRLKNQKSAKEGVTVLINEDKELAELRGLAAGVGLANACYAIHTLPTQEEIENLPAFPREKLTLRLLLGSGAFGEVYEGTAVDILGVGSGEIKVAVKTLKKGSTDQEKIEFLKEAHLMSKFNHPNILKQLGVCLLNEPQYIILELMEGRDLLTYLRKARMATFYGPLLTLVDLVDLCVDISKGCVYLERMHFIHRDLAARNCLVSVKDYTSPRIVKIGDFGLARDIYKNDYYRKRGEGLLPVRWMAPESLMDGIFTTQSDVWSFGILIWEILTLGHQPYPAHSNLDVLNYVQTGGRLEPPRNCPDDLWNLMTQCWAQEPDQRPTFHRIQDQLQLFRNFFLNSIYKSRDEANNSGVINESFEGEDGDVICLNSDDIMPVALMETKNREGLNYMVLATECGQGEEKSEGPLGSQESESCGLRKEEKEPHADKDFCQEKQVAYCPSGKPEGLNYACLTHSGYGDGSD
Protocol: as §2
Experiment [11] concerns the target TRKB (Homo sapiens (Human), UniProt Q16620). Description: Radio-tagged HotSpot kinase assay, TRKB. The class given is biochemical. The conditions noted are these: 33P-ATP, 120 min, room temperature.
Protocol: as §2
The mark [12] stands for this setting: read-out: TRKA (IC50/nM), 33P-ATP, 120 min, room temperature.
The mark [13] stands for this setting: read-out: ROS1 (IC50/nM), 33P-ATP, 120 min, room temperature.
[14] abbreviates: read-out: ROS1 (G2032R) (IC50/nM), 33P-ATP, 120 min, room temperature.
The mark [15] stands for this setting: read-out: TRKA (G595R) (IC50/nM), 33P-ATP, 120 min, room temperature.

Where two headings read alike, the source gives them in different places.

Chain of ROS1 (P08922 28-2347): as the sequence (P08922 28-2347 G2032R) above, with R2005G counted along it
Chain of TRKA (P04629 33-796): as the sequence (P04629 33-796 G667C limits assumed) above, with C635G counted along it
Chain of TRKB (Q16620 32-822): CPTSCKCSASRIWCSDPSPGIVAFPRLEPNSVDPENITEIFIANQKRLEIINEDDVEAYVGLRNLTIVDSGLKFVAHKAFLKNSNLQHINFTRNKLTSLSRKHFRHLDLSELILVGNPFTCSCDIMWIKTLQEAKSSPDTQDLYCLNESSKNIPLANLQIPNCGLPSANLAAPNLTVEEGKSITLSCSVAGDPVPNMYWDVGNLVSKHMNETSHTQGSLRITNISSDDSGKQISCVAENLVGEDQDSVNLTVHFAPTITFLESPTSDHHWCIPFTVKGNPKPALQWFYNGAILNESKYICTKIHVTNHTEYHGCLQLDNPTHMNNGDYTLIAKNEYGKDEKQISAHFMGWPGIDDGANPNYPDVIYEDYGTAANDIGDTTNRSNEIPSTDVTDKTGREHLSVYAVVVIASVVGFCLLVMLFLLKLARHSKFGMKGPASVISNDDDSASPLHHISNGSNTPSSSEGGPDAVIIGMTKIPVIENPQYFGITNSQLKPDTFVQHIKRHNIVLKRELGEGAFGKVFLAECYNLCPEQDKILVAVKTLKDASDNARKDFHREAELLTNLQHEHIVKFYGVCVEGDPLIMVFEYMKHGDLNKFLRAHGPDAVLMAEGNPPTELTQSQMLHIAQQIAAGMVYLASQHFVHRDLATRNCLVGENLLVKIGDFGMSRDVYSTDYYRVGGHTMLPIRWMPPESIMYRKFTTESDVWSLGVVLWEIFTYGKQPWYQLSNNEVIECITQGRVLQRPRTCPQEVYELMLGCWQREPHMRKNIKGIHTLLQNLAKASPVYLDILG

In turn, `CC(Nc1ccn2ncc(C3=NOC(C)(C)N3)c2n1)c1ccc(F)cc1` (racemic) [Example 25 racemate] returned an IC50 in experiment [1] of 50 to 500 nM.
With `COc1ccc(F)c(Cl)c1[C@@H](C)Nc1ccn2ncc(C3=NOC(C)(C)N3)c2n1` [Example 1], the IC50 in experiment [2] was found to be 458 nM.
Still for that read-out and setting: the value for `COc1c(F)ccc(F)c1[C@@H](C)Nc1ccn2ncc(C3=NOC(C)(C)N3)c2n1` [Example 2] was 113 nM.
Take `C[C@@H](Nc1ccn2ncc(C3=NOC(C)(C)N3)c2n1)c1cc(F)ccc1OCC(F)(F)F` [Example 3]: the IC50 came to 10.3 nM in experiment [3], 2.1 nM in experiment [4], 3.3 nM in experiment [2] and 2.8 nM in [5].
The matching figures for `[2H]C([2H])([2H])Oc1ccc(F)cc1[C@@H](C)Nc1nc2c(C3=NOC(C)(C)N3)cnn2cc1F` [Example 6]: 43.7 nM, 2 nM, 2.8 nM and 6 nM.
With `C[C@@H](Nc1ccn2ncc(C3=NOC(C)(C)N3)c2n1)c1cc(F)cc(F)c1F` [Example 13], the IC50 in experiment [3] came to 45.9 nM; in experiment [4] it was 5.1 nM; in experiment [2], 12.5 nM; in experiment [5], 5.2 nM.
The matching figures for `C[C@@H](Nc1ccn2ncc(C3=NOC(C)(C)N3)c2n1)c1cc(F)cnc1OCC(F)(F)F` [Example 15]: 34.8 nM, 3.8 nM, 8.6 nM and 4.9 nM.
For the compound `C[C@@H](Nc1ccn2ncc(C3=NOC(C)(C)N3)c2n1)c1cc(F)ccc1OC(F)(F)F` [Example 17], the IC50 in experiment [3] worked out at 23.5 nM; in experiment [4] it was 2.3 nM; in [2], 5.1 nM; in [5] it was 2.8 nM.
Regarding `CCCC1(C)NC(c2cnn3ccc(N[C@H](C)c4cc(F)ccc4OC)nc23)=NO1` (some centres unmarked) [Example 19], in experiment [3], the IC50 was 140 nM.
For `COc1ccc(F)cc1[C@@H](C)Nc1nc2c(C3=NOC(C)(C)N3)cnn2cc1F` [Example 20], the IC50 in experiment [3] turned out to be 43.6 nM.
In the case of `C[C@H](Nc1ccn2ncc(C3=NOC(C)(C)N3)c2n1)c1cc(F)ccc1Br` [Example 24], the IC50 in experiment [1] (setting [12]) was above 500 nM.
`C[C@@H](Nc1ccn2ncc(C3=NOC(C)(C)N3)c2n1)c1ccc(F)cc1` [Example 25]: the IC50 in [1] was in the range of 50 to 500 nM.
In turn, `COc1ccc(OC)c([C@@H](C)Nc2ccn3ncc(C4=NOC(C)(C)N4)c3n2)c1` [Example 29] showed an IC50 in experiment [2] of 387 nM.
`COc1c(F)cc(F)cc1[C@@H](C)Nc1ccn2ncc(C3=NOC(C)(C)N3)c2n1` [Example 30]: the IC50 was found to be 16.3 nM in experiment [3], 5.8 nM in experiment [4], 7 nM in [2] and 2.2 nM in [5].
As to `C[C@@H](Nc1ccn2ncc(C3=NOC(C)(C)N3)c2n1)c1cccc(F)c1` [Example 31], the IC50 came out at 54.4 nM in experiment [3] and 3.5 nM in experiment [2].
As for `COc1cc(F)c(F)cc1[C@@H](C)Nc1ccn2ncc(C3=NOC(C)(C)N3)c2n1` [Example 32], the IC50 worked out at 45.8 nM in experiment [4], 161 nM in [2] and 52.1 nM in experiment [5].
As for `C[C@@H](Nc1ccn2ncc(C3=NOC(C)(C)N3)c2n1)c1cc(F)ccc1C(F)(F)F` [Example 33], the IC50 was determined as 120 nM in experiment [3], 25.9 nM in experiment [4], 386 nM in experiment [2] and 15.7 nM in [5].
`COc1ccc(F)cc1[C@H](C)Nc1ccn2ncc(C3=NOC(C)(C)N3)c2n1` [Example 41] gave an IC50 in experiment [1] of 50 to 500 nM.
`Cc1ccc(F)cc1[C@H](C)Nc1ccn2ncc(C3=NOC(C)(C)N3)c2n1` [Example 43]: the IC50 in [1] lay within 50 to 500 nM.
Take `COc1ccc(F)cc1[C@@H](C)Nc1ccn2ncc(C3=NOC4(CCCCC4)N3)c2n1` [Example 45]: the IC50 in experiment [6] fell in the range of 5 to 50 nM.
In the case of `COc1ccc(F)cc1[C@@H](C)Nc1ccn2ncc(C3=NOC4(CCOCC4)N3)c2n1` [Example 46], the IC50 in experiment [6] is 5 to 50 nM.
In experiment [6], `COc1ccc(F)cc1[C@@H](C)Nc1ccn2ncc(C3=NOC(C)(c4ccc(F)cc4)N3)c2n1` (some centres unmarked) [Example 47] returned an IC50 of 50 to 500 nM.
For `COc1ccc(F)cc1[C@@H](C)Nc1ccn2ncc(C3=NOC(C)(c4ccccn4)N3)c2n1` (some centres unmarked) [Example 48], in [6], the IC50 was 50 to 500 nM.
Regarding `C[C@@H](Nc1ccn2ncc(C3=NOC(C)(C)N3)c2n1)c1cc(F)cc2ccccc12` [Example 53], the IC50 came out at 81.1 nM in experiment [3], 18.2 nM in experiment [4], 30.1 nM in experiment [2] and 8.4 nM in [5].
With `C[C@H](Nc1ccn2ncc(C3=NOC(C)(C)N3)c2n1)c1cc(F)cc2ccccc12` [Example 54], the IC50 in [7] (setting [13]) is below 0.5 nM; in [1], 0.5 to 5 nM; in [8], below 0.5 nM; in experiment [9], 0.5 to 5 nM; in experiment [10] (setting [14]), below 0.5 nM; in experiment [11], 0.5 to 5 nM.
In the case of `COC(=O)N1CCC2(CC1)NC(c1cnn3ccc(N[C@H](C)c4cc(F)ccc4OC)nc13)=NO2` [Example 55], the IC50 in [7] (setting [13]) was below 0.5 nM; in experiment [1], 0.5 to 5 nM; in [3], 47.9 nM; in experiment [8], below 0.5 nM; in experiment [9], 0.5 to 5 nM; in experiment [4], 26.7 nM. Moreover, the IC50 in experiment [10] (setting [14]) is below 0.5 nM; in experiment [11], below 0.5 nM; in experiment [2], 25.4 nM; in experiment [5], 6.6 nM.
On to `C[C@@H](Nc1ccn2ncc(C3=NCC(C)(C)N3)c2n1)c1cc(F)ccc1F` [Example 65], for which the IC50 in experiment [7] (setting [13]) is below 0.5 nM; in [1], 0.5 to 5 nM; in [8], below 0.5 nM; in [9], 0.5 to 5 nM; in experiment [10] (setting [14]), below 0.5 nM; in experiment [11], 0.5 to 5 nM.
As to `CCOCC1(C)NC(c2cnn3ccc(N[C@H](C)c4cc(F)ccc4O)nc23)=NO1` (some centres unmarked) [Example 66], the IC50 in [7] (setting [13]) was below 0.5 nM; in experiment [1], 0.5 to 5 nM; in [8] it was below 0.5 nM; in [9], 0.5 to 5 nM; in [10] (setting [14]) it was below 0.5 nM; in experiment [11], 0.5 to 5 nM.
For the compound `Cc1nc(-c2cnn3ccc(N[C@H](C)c4cc(F)ccc4O)nc23)no1` [Example 67], the IC50 in experiment [7] fell in the range of 0.5 to 5 nM; in experiment [1] it was 5 to 50 nM; in experiment [8], 0.5 to 5 nM; in [9] it was 5 to 50 nM; in experiment [10] it was 5 to 50 nM; in experiment [11], 0.5 to 5 nM.
On to `C[C@@H](Nc1ccn2ncc(C3=NOC(C)(C)N3)c2n1)c1cc(F)ccc1O` [Example 68], for which the IC50 in experiment [7] (setting [13]), in experiment [1] (setting [12]), in [8], in experiment [9] (setting [15]), in [10] (setting [14]) and in experiment [11] was below 0.5 nM each time.
For the compound `CCCCC1NC(c2cnn3ccc(N[C@H](C)c4cc(F)ccc4O)nc23)=NO1` (some centres unmarked) [Example 69], the IC50 in experiment [7] (setting [13]), in experiment [1] (setting [12]), in experiment [8], in [9] (setting [15]), in [10] (setting [14]) and in experiment [11] was below 0.5 nM each time.
For the compound `COc1ccc(F)cc1[C@@H](C)Oc1ccn2ncc(C3=NOC(C)(C)N3)c2n1` [Example 71], the IC50 in experiment [7] was 0.5 to 5 nM; in experiment [1], 0.5 to 5 nM; in experiment [3], 185 nM; in [8] it was 0.5 to 5 nM; in experiment [9], 0.5 to 5 nM; in [4], 76.9 nM. For the same compound, the IC50 in experiment [10] was 0.5 to 5 nM; in experiment [11] it was 0.5 to 5 nM; in experiment [2], 110 nM; in experiment [5], 32.2 nM.
